# In patent EP0525360B1, “Novel phenylacetamide derivatives and processes for the preparation thereof” (KOREA RESEARCH INSTITUTE OF CHEMICAL TECHNOLOGY, priority 1991, dated 1993):
# Structures can show the parent of a compound that is named as a salt.
# Legend:
# Type in all cases: in vivo
# mice = test: Tail-flick test (radiant heat)
# Experimental: Radiant heat was applied using a beam of high-intensity light focused on a tail spot. The response time, defined as the interval between the onset of the stimulus and the tail flick, was measured electronically(to the nearest 0.1 second). The beam intensity was set at a level giving a mean control reaction time of 3.8±0.4 seconds. […] The percentage of inhibition was determined by the following equation: Inhibition(%) =(Reaction time of the treated group - Reaction time of the control group)/(Reaction time of the control group)x 100 [formula]
# KTC-ICR mice [1] = test: acetic acid induced writhing test; conditions: Mus musculus; oral; 0.9% acetic acid i.p. 60 minutes later; writhings during 10 minutes; mice 20 to 25g; Examples 1 to 32
# Experimental: (§1) The KTC-ICR mice derived from Charles River Breeding Laboratory in the United States and provided by Experimental Animal Laboratory of Korea Research Institute of Chemical Technology were used as test animals. […] They were tested after having been adjusted to the testing environment for a week. Food and water were given freely; and illumination was maintained on a 12-hour cycle.
# (§2) Experiments were performed in two ways: that is, the acetic acid induced writhing test and the phenyl-1,4-benzoquinone(PBQ) induced writhing test.
# Solutions for the acetic acid induced writhing test were prepared by dissolving one of the end products prepared in Examples […] in a saline solution containing 1% by weight of Tween 80 to have a concentration of 5mg/mℓ and diluting it serially with the saline solution. The test solutions were administered orally in a dose of 0.3mℓ per 30g of body weight, using the 5 ICR mice for each test. 60 minutes later, 0.9% acetic acid solution was administered intraperitoneally in a dose of 0.1mℓ per 30g of body weight. 3 minutes thereafter, the number of writhings generated during a period of 10 minutes due to the administration of acetic acid was measured. For comparison purpose, initially, saline solution alone was administered orally to the control group. 60 minutes thereafter, 0.9% acetic acid solution was administered intraperitoneally to the control group.
# (§3) The number of writhings suffered by the test group was compared with that of the control group; and the analgesic effect was measured in terms of the percentage of inhibition of writhing(I. W.). I. W. (%) =(A - B)/(A)x 100 [formula] A : the number of writhings suffered by the control group, B : the number of writhings suffered by the test group.
# (§4) These ED50 values for the test compounds are shown in the last column of Table 1.
# KTC-ICR mice [2] = test: phenyl-1,4-benzoquinone(PBQ) induced writhing test; conditions: Mus musculus; oral; 0.02% PBQ i.p. 60 minutes later; writhings during 5 minutes; mice 10 to 15g; Examples 33 to 46
# Experimental: as §1, §2
# Alternatively, solutions for the PBQ induced writhing test were prepared by dissolving one of the products synthesized in Examples 33 to 46 in a mixture of Tween 80, alcohol and distilled water (1:5:94); and administered orally to the 5 ICR mice for each test in a dose of 0.3mℓ per 30g of body weight. 60 minutes later, 0.02% PBQ solution was administered intraperitoneally in a dose of 0.1mℓ per 30g of body weight of the test animals. 5 minutes thereafter, at the temperature of 40°C, the number of writhings occurred during a period of 5 minutes due to the PBQ solution administered was measured. For comparison, only the mixture of Tween 80, alcohol and distilled water was administered orally to the control group; and, after 60 minutes, the PBQ solution was administered intraperitoneally to the control group in the same manner as mentioned above.
# as §3, §4
# test animals = test: Behavior analysis (side-effect or toxicity scores); set-up: key to Sedation / Dyspnoea / Vasodilation / Convulsion / Salivation / Urination: behavior score; higher number = greater side effects; conditions: behavior score; for Convulsion / Salivation / Urination: normal value 0; for Dyspnoea / Ptosis / Sedation / Vasodilation: normal value 4
# Excerpt: In order to monitor a harmful side-effect or toxicity of the compounds having the formula(I), various behavioral changes in the test animals were observed. […] The higher the number is, the greater the side effects are.
compound,measurement,setting,value
"COc1cc(CNC(=O)CCCC/C=C/C(C)C)ccc1O [Capsaicin, trans-8-methyl-N-vanillyl-6-nonenamide, reference compound]",Inhibition(%),"mice; mouse, in vivo, 25 mg/kg",90%
COc1cc(CC(=O)NCCCc2ccc(C)c(C)c2)ccc1OCCN [Example 1-l-tartarate],Inhibition(%),"mice; p. o., dose 1.25 mg/Kg",50%
same,Inhibition(%),"mice; p. o., dose 2.5 mg/Kg",90%
Cc1ccc(CCCNC(=O)Cc2ccc(OCCN)cc2)cc1C [Example 2],ED50,KTC-ICR mice [1],3.98 mg/kg
Cc1ccc(CCCNC(=O)Cc2ccc(OCCN)c(F)c2)cc1C [Example 3],ED50,KTC-ICR mice [1],2.95 mg/kg
Cc1ccc(CCCNC(=O)Cc2ccc(OCCN)c(Cl)c2)cc1C [Example 4],ED50,KTC-ICR mice [1],4.78 mg/kg
Cc1cccc(CCCNC(=O)Cc2ccc(OCCN)cc2)c1 [Example 6],ED50,KTC-ICR mice [1],26.3 mg/kg
Cc1cccc(CCCNC(=O)Cc2ccc(OCCN)c(F)c2)c1 [Example 7],ED50,KTC-ICR mice [1],2.3 mg/kg
Cc1cccc(CCCNC(=O)Cc2ccc(OCCN)c(Cl)c2)c1 [Example 8],ED50,KTC-ICR mice [1],42.6 mg/kg
COc1cc(CC(=O)NCCCc2ccc(C)cc2)ccc1OCCN [Example 9],ED50,KTC-ICR mice [1],1.73 mg/kg
Cc1ccc(CCCNC(=O)Cc2ccc(OCCN)cc2)cc1 [Example 10],ED50,KTC-ICR mice [1],7.9 mg/kg
Cc1ccc(CCCNC(=O)Cc2ccc(OCCN)c(Cl)c2)cc1 [Example 12],ED50,KTC-ICR mice [1],4.7 mg/kg
COc1cc(CC(=O)NCCCc2cc(C)cc(C)c2)ccc1OCCN [Example 13],ED50,KTC-ICR mice [1],4.6 mg/kg
Cc1cc(C)cc(CCCNC(=O)Cc2ccc(OCCN)cc2)c1 [Example 14],ED50,KTC-ICR mice [1],3.16 mg/kg
Cc1cc(C)cc(CCCNC(=O)Cc2ccc(OCCN)c(Cl)c2)c1 [Example 16],ED50,KTC-ICR mice [1],123 mg/kg
COc1cc(CC(=O)NCCc2cc(C)cc(C)c2)ccc1OCCN [Example 17],ED50,KTC-ICR mice [1],0.77 mg/kg
"COc1cc(CC(=O)NCCCc2ccc(Cl)cc2)ccc1OCCN [Example 18, N-{3-(4-chlorophenyl)propyl}-4-(2-aminoethoxy)-3-methoxyphenylacetamide]",ED50,KTC-ICR mice [1],0.4 mg/kg
"NCCOc1ccc(CC(=O)NCCCc2ccc(Cl)cc2)cc1 [Example 19, N-{3-(4-chlorophenyl)propyl}-4-(2-aminoethoxy)phenylacetamide]",ED50,KTC-ICR mice [1],0.03 mg/kg
"NCCOc1ccc(CC(=O)NCCCc2ccc(Cl)cc2)cc1F [Example 20, N-{3-(4-chlorophenyl)propyl}-4-(2-aminoethoxy)-3-fluorophenylacetamide]",ED50,KTC-ICR mice [1],0.07 mg/kg
"NCCOc1ccc(CC(=O)NCCCc2ccc(Cl)cc2)cc1Cl [Example 21, N-{3-(4-chlorophenyl)propyl}-4-(2-aminoethoxy)-3-chlorophenylacetamide]",ED50,KTC-ICR mice [1],0.04 mg/kg
"COc1cc(CC(=O)NCCCc2ccc(Cl)c(Cl)c2)ccc1OCCN [Example 24, N-{3-(3,4-dichlorophenyl)propyl}-4-(2-aminoethoxy)-3-methoxyphenylacetamide]",ED50,KTC-ICR mice [1],0.66 mg/kg
"COc1cc(CC(=O)NCCCc2ccc3c(c2)OCO3)ccc1OCCN [Example 25, N-{3-(3,4-methylenedioxyphenyl)propyl}-4-(2-aminoethoxy)-3-methoxyphenylacetamide]",ED50,KTC-ICR mice [1],0.8 mg/kg
"COc1cc(CC(=O)NCCCc2cccc(C(F)(F)F)c2)ccc1OCCN [Example 26, N-{3-(3-trifluoromethylphenyl)propyl}-4-(2-aminoethoxy)-3-methoxyphenylacetamide]",ED50,KTC-ICR mice [1],1.54 mg/kg
"COc1cccc(CCCNC(=O)Cc2ccc(OCCN)c(OC)c2)c1 [Example 27, N-{3-(3-methoxyphenyl)propyl}-4-(2-aminoethoxy)-3-methoxyphenylacetamide]",ED50,KTC-ICR mice [1],1.25 mg/kg
"COc1cc(CC(=O)NCCCc2cccc(OCc3ccccc3)c2)ccc1OCCN [Example 28, N-{3-(3-benzyloxyphenyl)propyl}-4-(2-aminoethoxy)-3-methoxyphenylacetamide]",ED50,KTC-ICR mice [1],28.8 mg/kg
COc1cc(CC(=O)NCCCCc2cccc(C)c2)ccc1OCCN [Example 30],ED50,KTC-ICR mice [1],1.54 mg/kg
Cc1cccc(CCCCNC(=O)Cc2ccc(OCCN)cc2)c1 [Example 31],ED50,KTC-ICR mice [1],3.3 mg/kg
Cc1ccc(CCCCNC(=O)Cc2ccc(OCCN)c(F)c2)cc1C [Example 32],ED50,KTC-ICR mice [1],1.44 mg/kg
"Cc1ccc(CCCNC(=O)Cc2ccc(OCCN)c(O)c2)cc1C [Example 33, N-{3-(3,4-dimethylphenyl)propyl}-4-(2-aminoethoxy)-3-hydroxyphenylacetamide]",ED50,KTC-ICR mice [2],0.49 mg/kg
same,Convulsion,test animals; dose 0.2mg/Kg,0
same,Salivation,test animals; dose 0.2mg/Kg,0
same,Urination,test animals; dose 0.2mg/Kg,0
same,Dyspnoea,test animals; dose 0.2mg/Kg,4
same,Ptosis,test animals; dose 0.2mg/Kg,4
same,Sedation,test animals; dose 0.2mg/Kg,4
same,Vasodilation,test animals; dose 0.2mg/Kg,4
same,Convulsion,test animals; dose 0.6mg/Kg,0
same,Salivation,test animals; dose 0.6mg/Kg,0
same,Urination,test animals; dose 0.6mg/Kg,0
same,Dyspnoea,test animals; dose 0.6mg/Kg,4
same,Ptosis,test animals; dose 0.6mg/Kg,4
same,Sedation,test animals; dose 0.6mg/Kg,5
same,Vasodilation,test animals; dose 0.6mg/Kg,4
same,Convulsion,test animals; dose 2.0mg/Kg,0
same,Salivation,test animals; dose 2.0mg/Kg,0
same,Urination,test animals; dose 2.0mg/Kg,0
same,Dyspnoea,test animals; dose 2.0mg/Kg,5
same,Ptosis,test animals; dose 2.0mg/Kg,6
same,Sedation,test animals; dose 2.0mg/Kg,7
same,Vasodilation,test animals; dose 2.0mg/Kg,4
"Cc1ccc(CCCNC(=O)Cc2ccc(OCCN)c(N)c2)cc1C [Example 37, N-{3-(3,4-dimethylphenyl)propyl}-4-(2-aminoethoxy)-3-aminophenylacetamide]",ED50,KTC-ICR mice [2],22.7 mg/kg
same,Convulsion,test animals; dose 6.7mg/Kg,0
same,Salivation,test animals; dose 6.7mg/Kg,0
same,Urination,test animals; dose 6.7mg/Kg,0
same,Dyspnoea,test animals; dose 6.7mg/Kg,4
same,Ptosis,test animals; dose 6.7mg/Kg,4
same,Sedation,test animals; dose 6.7mg/Kg,4
same,Vasodilation,test animals; dose 6.7mg/Kg,4
same,Convulsion,test animals; dose 20mg/Kg,0
same,Salivation,test animals; dose 20mg/Kg,0
same,Urination,test animals; dose 20mg/Kg,0
same,Dyspnoea,test animals; dose 20mg/Kg,4
same,Ptosis,test animals; dose 20mg/Kg,5
same,Sedation,test animals; dose 20mg/Kg,4
same,Vasodilation,test animals; dose 20mg/Kg,4
same,Convulsion,test animals; dose 60mg/Kg,0
same,Salivation,test animals; dose 60mg/Kg,0
same,Urination,test animals; dose 60mg/Kg,0
same,Dyspnoea,test animals; dose 60mg/Kg,4
same,Ptosis,test animals; dose 60mg/Kg,6
same,Sedation,test animals; dose 60mg/Kg,6
same,Vasodilation,test animals; dose 60mg/Kg,4
NCCOc1ccc(CC(=O)NCCCc2ccc(F)cc2)cc1N [Example 40-HCl],Inhibition(%),"mice; p. o., dose 50 mg/Kg",67%
"NCCOc1ccc(CC(=O)NCCCc2cccc(C(F)(F)F)c2)cc1N [Example 42, N-{3-(3-trifluoromethylphenyl)propyl}-4-(2-aminoethoxy)-3-aminophenylacetamide]",Convulsion,test animals; dose 11.1mg/Kg,0
same,Salivation,test animals; dose 11.1mg/Kg,0
same,Urination,test animals; dose 11.1mg/Kg,0
same,Dyspnoea,test animals; dose 11.1mg/Kg,4
same,Ptosis,test animals; dose 11.1mg/Kg,4
same,Sedation,test animals; dose 11.1mg/Kg,4
same,Vasodilation,test animals; dose 11.1mg/Kg,4
same,Convulsion,test animals; dose 33.3mg/Kg,0
same,Salivation,test animals; dose 33.3mg/Kg,0
same,Urination,test animals; dose 33.3mg/Kg,0
same,Dyspnoea,test animals; dose 33.3mg/Kg,4
same,Ptosis,test animals; dose 33.3mg/Kg,4
same,Sedation,test animals; dose 33.3mg/Kg,4
same,Vasodilation,test animals; dose 33.3mg/Kg,4
same,Convulsion,test animals; dose 100mg/Kg,0
same,Salivation,test animals; dose 100mg/Kg,0
same,Urination,test animals; dose 100mg/Kg,0
same,Dyspnoea,test animals; dose 100mg/Kg,4
same,Ptosis,test animals; dose 100mg/Kg,7
same,Sedation,test animals; dose 100mg/Kg,7
same,Vasodilation,test animals; dose 100mg/Kg,4
same,Inhibition(%),"mice; p. o., dose 100 mg/Kg",40%
"Cc1ccc(CCCNC(=O)Cc2ccc(OCCN)c([N+](=O)[O-])c2)cc1C [Example 43, N-{3-(3,4-dimethylphenyl)propyl}-4-(2-aminoethoxy)-3-nitrophenylacetamide]",ED50,KTC-ICR mice [2],22.5 mg/kg
"CN1C(C(=O)Nc2ccccn2)=C(O)c2ccccc2S1(=O)=O [Piroxicam, reference compound]",Inhibition(%),"mice; p. o., dose 100 mg/Kg",0%
